This is an account of results in patent US20150104399A1, “PREVENTION OF FIBROBLAST COLLAPSE” (Biocogent, LLC, priority 2012, published 2015).

Experiment [1] has as its system skin fibroblasts. Briefly: Viability of fibroblasts exposed to BSA reacted with ribose, resazurin dye. Type of experiment: cell-based. The settings on record: positive control for preventing glycation; human dermal fibroblasts exposed to glycated protein. Here is the method:
In some examples discussed herein, comparison was made between the skin care compositions of the present technology and those containing pyridoxamine as a positive control. It was shown that a population of human dermal fibroblasts (HDFs) exposed to glycated proteins is generally expected to collapse. Specifically, glycated protein (such as bovine serum albumin, BSA), when added to normally cultured skin fibroblasts at a concentration in the range of 2 to 6 mg/mL, caused cell death within approximately 18 to 36 hours. […] A series of tests was conducted to evaluate the skin care compositions of the present technology, to see whether they could prevent the target protein of BSA from being toxic to skin fibroblasts. This was done by first reacting BSA with the sugar (ribose) in a buffered saline solution. Some of the reaction mixtures also contained pyridoxamine (a drug used here as the positive control known to prevent glycation) or the skin care compositions of the present technology. […] After exposure of the cells to these solutions at 37° C. for 24 hours, the viability of the cells was determined by adding a dye (resazurin) to the wells and incubating at 37° C. for another hour. […] The color change in the wells was then measured as optical density on a plate-reading spectrophotometer. […]

Experiment [2] relates to skin fibroblasts. The experiment in a line: Viability and attachment of confluent fibroblasts exposed to BSA reacted with ribose, neutral red dye, microscopy. Type of experiment: cell-based, human. The settings on record: BSA reacted with 100 millimolar ribose in presence of 10 millimolar pyridoxamine; 2 mg/mL BSA, 16 hours; FIG. 6. As to the method:
A further series of tests was conducted to evaluate the skin care compositions of the present technology, to see whether they could prevent the target protein of BSA from being toxic to skin fibroblasts. This was done by first reacting BSA with the glycating sugar (ribose) in a buffered saline solution. Some of the reaction mixtures also contained pyridoxamine (a drug used here as the positive control known to prevent glycation) or the skin care compositions of the present technology. For this test, incubation of the sterile reaction mixtures was for two days at a temperature of about 45° C. After that, the reaction mixtures were extensively dialyzed against deionized water, removing all of the small molecules (ribose, salts, etc.) from the mixtures, leaving just the BSA. The resulting BSA solutions were then lyophilized (freeze-dried) to remove water, and the residues of BSA were resolubilized in a buffered saline solution. After measuring the protein concentration of each of these solutions, they were each added to a cell culture dish containing confluent fibroblasts to achieve a final BSA concentration of 2 milligrams per milliliter. After exposure of the cells to these solutions at 37° C. for 16 hours, the viability of the cells was determined by adding a dye (neutral red) to the plates and incubating at 37° C. for another hour. […]

For `Cc1ncc(CO)c(CN)c1O` [pyridoxamine], in experiment [1], the “effect on fibroblast collapse” value is “mitigated some of the collapse”. Also, the “health of fibroblasts (neutral red uptake, attachment)” value in experiment [2] was “have remained healthy”.
